Tests used:
[1] = Catalepsy test in rats (s.c., vertical wire mesh); settings: rat, maximum catalepsy within the first 6 hours
Protocol: Test compound is given s.c. in different doses. The rat (170-240 g) is placed on a vertical wire mesh (mesh diameter 12 mm). The rat is considered cataleptic if it remains immobile for more than 15 sec. The maximum number of rats showing catalepsy within the first 6 hours is recorded for each dose group. The results are recorded in fractions and an ED50 value is calculated by means of log-probit analysis. The results are shown in Table 1 (cf. Our Internat. Patent Application Publ. No. WO 92/00070).

[2] = Inhibition of diazepam withdrawal symptoms in mice (black/white test box); assay type: in vivo, mice (male BKW); settings: 0.1 mg/kg i.p.; FIG. 1
Protocol: (§1) The tests are tests for the effect of a substance on the abstinence symptoms induced by withdrawal of a drug of a substance of abuse in mice measured as the effect on some specific behavioral changes following to withdrawal of the drug or substance of abuse.
(§2) The test was conducted using an open-top experimental box (45*27*27 cm) two fifths of which was partitioned from the rest, painted black and illuminated with a dim red light (1×60 W, zero Lux). The remainder of the box was painted white and brightly illuminated (60 W, 400 Lux) with a white light source. The light sources were located 17 cm above the box and the base of the box was lined into 9 cm squares. Access between the two compartments was by means of a 7.5×7.5 cm opening located in floor level at the centre of the partition.
(§3) The mice were male BKW mice having weight of 25-30 g, housed in groups of 10 and given free acces to drink and food and kept on a dark/light cycle of 12 hours.
Diazepam (10 mg/kg) was given i.p. twice a day for 7 days and then withdrawn. […]
The test was carried out by taking the mice to a dimly illuminated room and then after 1 hour adaption to the new environment placing them in the centre of the white section of the test box. […] The following behavioural changes were measured: […]

[3] = Inhibition of nicotine withdrawal symptoms in mice (black/white test box); assay type: in vivo, mice (male BKW); settings: 0.1 mg/kg i.p.; FIG. 2
Protocol: as §1, §2, §3
The test was carried out by taking the mice to a dimly illuminated room and then after 1 hour adaption to the new environment placing them in the centre of the white section of the test box. Behavioural changes were assed via remote video recording. The following behavioural changes were measured:
a) The time spent in the white and black section;
b) the number of explorative rearings in both the white and black section; […]

| Compound | Cataleptic activity ED50 (s.c.) [1] | also measured |
| --- | --- | --- |
| O=C1NCCN1CCN1CC=C(c2cn(-c3ccc(F)cc3)c3ccc(C(F)(F)F)cc23)CC1 [Comp. A, 1-(4-Fluorophenyl)-3-[1-[2-(2-imidazolidinon-1-yl)ethyl]-1,2,3,6-tetrahydropyridin-4-yl]-5-trifluoromethyl-1H-indole, reference compound] | 0.49 µmol/kg |  |
| O=C1NCCN1CCN1CC=C(c2cn(-c3ccc(F)cc3)c3ccc(Cl)cc23)CC1 [Comp. B, 5-Chloro-1-(4-fluorophenyl)-3-[1-[2-(2-imidazolidinon-1-yl)ethyl]-1,2,3,6-tetrahydro-4-pyridyl]-1H-indole, reference compound] | 2.2 µmol/kg |  |
| CN1CCN(CCN2CCC(c3cn(-c4ccc(F)cc4)c4ccc(Cl)cc34)CC2)C1=O [Comp. No 3, 5-chloro-1-(4-fluorophenyl)-3-[1-[2-(3-methyl-2-imidazolidinon-1-yl)ethyl]-4-piperidyl]-1H-indole] | 31 µmol/kg |  |
| O=C1CCCN1CCN1CCC(c2cn(-c3ccc(F)cc3)c3ccc(Cl)cc23)CC1 [Comp. No 4, 5-chloro-1-(4-fluorophenyl)-3-[1-[2-(2-pyrrolidinon-1-yl)ethyl]-4-piperidyl]-1H-indole] | 23 µmol/kg |  |
| O=C1NCCN1CCN1CCC(c2cn(-c3ccc(F)cc3)c3ccc(Cl)cc23)CC1 [Sertindole, 5-chloro-1-(4-fluorophenyl)-3-[1-[2-(2-imidazolidinon-1-yl)ethyl]-4-piperidyl]-1H-indole] |  | Inhibiting effect on the withdrawal behavioural changes, diazepam [2]: statistically significant inhibiting effect; Relieving effect on the symptoms following withdrawal of diazepam [2]: marked relieving effect; Inhibiting effect on the withdrawal behavioural changes, nicotine [3]: statistically significant inhibiting effect; Relieving effect on the symptoms following withdrawal of nicotine [3]: marked relieving effect |

Source: patent US5462948A, “Treatment of addiction to drugs and substances of abuse” (H. Lundbeck A/S, priority 1991, dated 1995)
